Experimental data as given in PubChem BioAssay AID2823 (Broad Institute, 2010).
pIC50: −log10 of the molar value. Activity calls are given as the source filed them. No rule for the calls is given here.

target: RanGTP-importin-beta complex (human Ran / KPNB1); test: disruptors of RanGTP/KPNB1 binding – biochemical, FRET, CFP/YFP, cell-free homogeneous, confirmation (AID 2823); conditions: CFP-Ran/YFP-importin-beta FRET ratio

| Structure (SMILES) | pIC50 | IC50 |
| --- | --- | --- |
| CC1=C(C(=O)OCC2CCCO2)C(c2ccccc2OC(C)C)C2=C(CC(c3ccco3)CC2=O)N1 (stereo not given) | 5.08 | – |
| OCCC1CN(Cc2cccn2-c2cccnc2)CCN1Cc1ccc(F)cc1 (stereo not given) | – | > 50 µM (inactive) |
| CCN1/C(=C2\SC(=S)N(Cc3ccccc3)C2=O)Sc2ccccc21 | – | > 50 µM (inactive) |
| O=C(Nc1cccc(F)c1)c1ccc(S(=O)(=O)NCC2CCCO2)cc1 (stereo not given) | – | > 50 µM (inactive) |
| NC(N)=N/N=C/c1ccc(N(c2ccccc2)c2ccccc2)cc1 | 4.78 | – |
| CC1Cc2cc(S(=O)(=O)NCc3ccccc3)ccc2N1C(=O)C1CC1 (stereo not given) | – | > 50 µM (inactive) |
| CC(=O)c1cc(C#N)c(N2CC(C)OC(C)C2)nc1C (stereo not given) | – | > 50 µM (inactive) |
| CCOC(=O)c1c(N)n(CCCOC(=O)c2ccco2)c2nc3ccccc3nc12 | 4.63 | – |
| COc1cccc(-c2coc3c(C)c4oc(=O)c(CC(=O)O)c(C)c4cc23)c1 | – | > 50 µM (inactive) |
| CCOC(=O)C1=C(N)OC2=C(C(=O)CCC2)C1c1sccc1C (stereo not given) | – | > 50 µM (inactive) |
| CN(C)c1ccc(/C=C(\NC(=O)c2ccccc2)C(=O)NCc2ccncc2)cc1 | – | > 50 µM (inactive) |
| CN1CCN(c2ccc(S(=O)(=O)N3CCCCC3)cc2NC(=O)Cc2ccc(Cl)cc2)CC1 | – | > 50 µM (inactive) |
| COC(=O)C(C)Oc1ccc2c(c1)O/C(=C\c1ccco1)C2=O (stereo not given) | 4.81 | – |
| CCc1ccc(N2C(=O)NC(=O)/C(=C\c3cc(C)n(-c4cc(C(=O)O)cc(C(=O)O)c4)c3C)C2=O)cc1 | – | > 50 µM (inactive) |
| N#Cc1cc2c(ccc3ccccc32)oc1=O | – | > 50 µM (inactive) |
| Cn1c(=O)cc(OCCCC(=O)NCc2ccccn2)c2ccccc21 | – | > 50 µM (inactive) |
| Cc1ccc(N2CCN(c3ccc(C)cc3)C2c2ccccn2)cc1 | – | > 50 µM (inactive) |
| O=c1c2ccccc2sc2ccc(C#CC3(O)CCCCC3)cc12 | 4.64 | – |
| CN1CCCN(Cc2cccc3ccccc23)CC1 | – | > 50 µM (inactive) |
| CC(=O)Nc1ccc(S(=O)(=O)NCc2nc(-c3cccc(C)c3)no2)cc1 | – | > 50 µM (inactive) |
| O=C(CSc1nnc(-c2ccc(F)cc2)o1)Nc1ccc(S(=O)(=O)N2CCCC2)cc1 | – | > 50 µM (inactive) |
| CC1CCN(c2cc(=O)n(C3CCCCC3)c(=O)[nH]2)CC1 | – | > 50 µM (inactive) |
| O=C(Cc1cc(=O)oc2cc(O)ccc12)NCC1CCC(C(=O)O)CC1 (stereo not given) | 4.98 | – |
| O=C(O)c1cn(Cc2cccnc2)c(=O)c2ccccc12 | – | > 50 µM (inactive) |
| COC(=O)c1cc(=O)n2c(sc3ccccc32)c1C#N | 5.88 | – |

| Structure (SMILES) | pIC50 | IC50 |
| --- | --- | --- |
| CCOc1ccc(C(=O)c2cc3ccc(O)cc3oc2=O)cc1 | 5.03 | – |
| Cc1cc2c(c(=O)n1C1CC1)C(c1cccc(Cl)c1)C(C#N)=C(N)O2 (stereo not given) | – | > 50 µM (inactive) |
| COc1ccc(C(=O)C[n+]2ccc(N)c(C)c2C)cc1 | – | > 50 µM (inactive) |
| CCN(CC)c1ccc(/C=N/NC(=O)c2c(Cl)cnn2C)c(O)c1 | 5.21 | – |
| Cc1ccc(S(=O)(=O)NC(C(=O)Oc2ccc3ccc(=O)oc3c2)c2ccccc2)cc1 (stereo not given) | 4.60 | – |
| Cc1ccc(-n2c(=O)c(C#N)cc3c(=O)n4ccccc4nc32)cc1C | – | > 50 µM (inactive) |
| Cc1cccc(-n2c(O)c(/C=C/C=Nc3ccccc3)c(=O)[nH]c2=O)c1 | 5.44 | – |
| COc1cc2c(cc1OC)CN(Cc1cc(=O)oc3cc(C)c(Cl)cc13)CC2 | – | > 50 µM (inactive) |
| CC(C)CCNC(=O)C(c1ccco1)N(Cc1ccccc1)C(=O)c1snc(C(N)=O)c1N (stereo not given) | – | > 50 µM (inactive) |
| Cc1ccc(N2CC(=O)N(NC(=O)c3sc4nc(C)cc(C)c4c3N)CC2=O)cc1 | – | > 50 µM (inactive) |
| Cc1cccc(N2C(=O)/C(=C/c3cccnc3)SC2=S)c1 | – | > 50 µM (inactive) |
| CCOCCCNC(=S)NCCCNc1nc2cc3c(cc2cc1C#N)OCO3 | 5.03 | – |
| Cc1cccc(C)c1OCC(=O)OC/C(O)=C(\C#N)c1nc2ccccc2[nH]1 | – | > 50 µM (inactive) |
| COc1cc(NC(=O)Cn2ncc(Cl)c(Cl)c2=O)c(C)cc1[N+](=O)[O-] | – | > 50 µM (inactive) |
| COc1ccc(-c2cc(C(F)(F)F)n3nc(N)nc3n2)cc1 | 4.84 | – |
| CC(C)Cc1nnc(NC(=O)Cc2cccs2)s1 | – | > 50 µM (inactive) |
| COc1ccccc1NC(=O)CN1CCN(CC(=O)Nc2ccc(C)c(F)c2)CC1 | – | > 50 µM (inactive) |
| COc1cc(CN2CCN(Cc3c[nH]c4ccccc34)CC2CCO)cc(OC)c1 (stereo not given) | – | > 50 µM (inactive) |
| Cc1ccc2nc(NCCNC(=O)c3ccccc3)c(C#N)cc2c1 | 5.44 | – |
| O=C(Cn1c2ccccc2c(=O)c2ccccc21)N/N=C/c1ccc(N2CCCC2)c([N+](=O)[O-])c1 | – | > 50 µM (inactive) |
| Cc1ccc(/C=C/C(=O)Nc2cccc3ncccc23)o1 | – | > 50 µM (inactive) |
| CC1=Nc2ccccc2/C1=C\c1nc(-c2ccc(F)cc2)oc1O | – | > 50 µM (inactive) |
| Oc1ccc(/C=N/Nc2ccc3ccccc3c2)c(O)c1 | – | > 50 µM (inactive) |
| O=C(Oc1c(CN2CCOCC2)cc(Cl)c2cccnc12)c1ccccc1 | – | > 50 µM (inactive) |
| O=C(/C=C/c1cccs1)Nc1ccc([N+](=O)[O-])cc1 | – | > 50 µM (inactive) |
